# According to patent US6413934B1, “Streptavidin mutants having secondary functional domains” (University of Washington, priority 1998, dated 2002):
# Residue numbers refer to the chain shown, from its start. Like-named read-outs stand apart in the source and are kept apart here.
# B1: FN-SA: streptavidin mutant incorporating the RGD sequence and flanking residues from fibronectin, SEQ ID NO:2 (protein)
# chain: MRKIVVAAIAVSLTTVSITASASADPSKDSKAQVSAAEAGITGTWYNQLGSTFIVTAGADGALTGTYESAVGNAESRYVLTGRYDSAPGRGDSPGSGTALGWTVAWKNNYRNAHSATTWSGQYVGGAEARINTQWLLTSGTTEANAWKSTLVEHDTFTKVKPSAASIDAAKKAGVNNGNPLDAVQQ
# B2: OSTP-SA: streptavidin mutant incorporating the RGD sequence and flanking residues from osteopontin, SEQ ID NO:3 (protein)
# chain: B1 chain with P94V
# What was measured:
# [1] = biological target: integrin receptors (on rat aortic endothelial cells); assay: cell-based or functional assay
# [2] = test system: Rat aortic endothelial cells; assay: endothelial cell adhesion assay on streptavidin-coated wells; assay type: cell-based
# Experimental: Rat aortic endothelial cells were cultured in MDCB 131 media (Gibco BRL) with fetal bovine serum and used in the cell adhesion assays. Wild type and RGD streptavidin mutants were incubated in 96 well polystyrene plates overnight at 4° C. at various concentrations and then blocked with 1% BSA in PBS for 1 hour at 37° C. prior to the plating of cells (n=3). Alternatively, biotinylated BSA was incubated in the 96 wells overnight at 4° C., blocked with 1% BSA in PBS for one hour at 37° C., and then streptavidin (wild type or RGD) was incubated in the wells for one hour at 37° C. The protein solution was aspirated and the wells rinsed with sterile PBS before 50,000 cells were plated onto the protein coated wells for one hour at 37° C. The media was removed and the wells were rinsed twice with warm PBS (37° C.). The adherent cells were fixed with 4% paraformaldehyde (PFA) for 5 minutes and stained with 0.5% toluidine blue in 4% PFA for another 5 minutes at room temperature before the wells were rinsed by immersing the plate into a large bowl of tap water. The plate was dried by blotting the inverted plate onto paper towels and the remaining dye in the wells was solubilized with 1% SDS prior to reading the absorbance of the wells with a plate reader at 595 nm.
# [3] = off-rate measurement with tritiated biotin; assay type: binding; details: 25° C., PBS pH 7.0
# Experimental: Since the mutations occur in a loop opposite from the biotin binding pocket, the rational design of the molecule should obviate any effect of reducing the off-rate, or dissociation constant of streptavidin. This indeed was observed by experimental koff values for the RGD mutants that are within the standard deviation of previously calculated values for wild type streptavidin. Off-rate measurements were performed at 25° C. to quantitatively characterize the biotin affinity of the mutants and compare the results of the binding affinity of wild type streptavidin. Tritiated biotin, “hot” because it is radioactively labeled, was added to samples of the mutant proteins in a PBS solution, pH 7.0, and allowed to equilibrate for 1 to 2 hours. The off-rate reaction was then initiated by the addition of 5 μL of 15 mM “cold” biotin (non-radioactive) in PBS. As the tritiated biotin dissociated from the streptavidin mutants, aliquots were taken at fixed times and scintillation counts were performed to analyze the beta emission of the tritiated biotin. The natural logarithm of the bound tritiated fractions was plotted versus time to attain the off-rate koff, which is calculated from a linear regression of the data points.
# [4] = test system: αvβ3 integrin present on the melanoma cells; assay: peptide and antibody inhibition of melanoma cell adhesion to RGD streptavidin mutants; assay type: cell-based; details: human melanoma cells; antibodies at 10 μg/ml
# Experimental: Melanoma cell adhesion assays on streptavidin coated polystyrene dishes were performed as described above for endothelial cell adhesion assays, except that DMEM with 0.1% BSA and 10 mM HEPES was used as culture medium and 2×10^5 cells were added to each well. Moαv cells that express high levels of αvβ3 integrin were derived from M21 melanoma cells. Adhesion assays were performed on self assembled monolayers constructed on 24 well tissue culture polystyrene dishes. The dishes were evaporated with about 400A gold, then incubated with a 0.1 mM ethanolic thiol solution of 20% biotinylated alkylthiol (BAT) and 80% polyethylene glycol (PEG) overnight. The wells were rinsed three times with 100% ethanol, blown dry with nitrogen, then incubated with 0.05 mg/ml of streptavidin in PBS (wild type or mutant) at 37° C. for one hour with side to side rocking. The protein solution was then removed, and the wells were rinsed three times with PBS before addition of cells. Antibody inhibition assays were performed essentially identically as for the RGD/RGE inhibition assays. LM609 and control were obtained from Chemicon International, Inc. (Calif.) and were used at 1:1000 dilution (10 μg/ml).
# [5] = test system: Rat aortic endothelial cells; assay: peptide inhibition of endothelial cell adhesion to FN-SA and OSTP-SA; assay type: cell-based; details: for inhibitory effect on cell adhesion: soluble peptide preincubated with cells 15 minutes
# Experimental: To confirm that the observed cell adhesion was directly RGD dependent, inhibition studies were conducted with GRGDSP (amino acids 89 to 94 of SEQ ID NO:2), GRGESP (SEQ ID NO:8), and GRADSP (SEQ ID NO:9) peptides.
# Synthetic hexapeptides GRGDSP (amino acids 89 to 94 of SEQ ID NO:2), GRGESP (SEQ ID NO:8), and GRADSP (SEQ ID NO:9) were purchased from Gibco BRL. The inhibition assay was performed with the same protocol as for the cell adhesion assay except that the cells were incubated with the peptides for 15 minutes at room temperature prior to being plated onto the protein-coated wells.
molecule,measurement,setting,value
Osteopontin Streptavidin (streptavidin having incorporated therein RGD with flanking amino acids as in osteopontin) (designed binder),absorbance at 595 nm (adhered rat aortic endothelial cells) (absorbance at 595 nm),[1],0.3
same,coating concentration at saturation of cell adhesion,[1],100 nM
"Wild type streptavidin: naturally occurring tetrameric biotin-binding protein of Streptomyces avidinii, SEQ ID NO:1","cell adhesion (absorbance at 595 nm, visual inspection)",[2],does not display any cell adhesion above control levels
same,"cell adhesion (absorbance at 595 nm, visual inspection)",[2]; listed as wild type,comparable to those for 1% SDS
same,koff,[3],3.3±0.1×10^−6 /sec
GRGDSP [RGD peptide],inhibition of cell adhesive activity of the RGD mutants,[4],can be inhibited
same,inhibitory effect on cell adhesion at 100 μm peptide,[5]; 100 μM peptide,inhibited cell adhesion
same,inhibitory effect on cell adhesion,[5],inhibited cell adhesion in a dose-dependent manner
Fibronectin Streptavidin (streptavidin having incorporated therein RGD with flanking amino acids as in fibronectin) (designed binder),absorbance at 595 nm (adhered rat aortic endothelial cells) (absorbance at 595 nm),[1],0.3
same,coating concentration at saturation of cell adhesion,[1],100 nM
GRGESP,inhibitory effect on cell adhesion,[5],no noticeable inhibitory effect
GRADSP,inhibitory effect on cell adhesion,[5],no noticeable inhibitory effect
B1,koff,[3],3.28e-06 s⁻¹
B2,koff,[3],3.13e-06 s⁻¹
